Test results published in publication PMC9295122, “Sialic Acid Derivatives Inhibit SiaT Transporters and Delay Bacterial Growth” (ACS Chemical Biology, 2022).

Molecular target: SiaT from S. aureus (Staphylococcus aureus, UniProt A0A0H2XJ46)
Experiment: [3H]Neu5Ac uptake in proteoliposomes, SaSiaT
Settings: for type of inhibition: SaSiaT, Lineweaver–Burk plot
Protocol: To gain further insights into the molecular mechanisms, we investigated the direct effects of compounds 3e and 3f on the transport activity in proteoliposomes reconstituted with PmSiaT and SaSiaT. A kinetic analysis was performed by measuring the concentration-dependent uptake of [^3H]Neu5Ac in the presence of two different concentrations of the inhibitors 3f (Figure 5a,c) or 3e (Figure 5b,d).
Figure 5 Kinetic analysis of the inhibition of recombinant SiaT from P. mirabilis (A,B) and S. aureus (C,D) reconstituted in proteoliposomes and [^3H]Neu5Ac efflux in proteoliposomes (E,F). (a–d) Data were plotted according to Lineweaver–Burk as a reciprocal transport rate vs reciprocal Neu5Ac concentration. The transport rate was measured, in 5 min, by adding [^3H] Neu5Ac at the indicated concentrations to proteoliposomes containing 20 mM K^+-gluconate in the presence of valinomycin as described in the Supporting Information. [(A,B) P. mirabilis SiaT]; (A) compound 3f 0.25 μM (●) or 0.75 μM (□) was added in comparison to samples without inhibitor (○). (B) Compound 3e 12 μM (●) or 40 μM (□) was added in comparison to samples without an inhibitor (○). [(C,D) S. aureus SiaT]. (C) Compound 3f 80 μM (●) or 200 μM (□) was added in comparison to samples without an inhibitor (○). (D) Compound 3e 5 μM (●) or 12 μM (□) was added in comparison to samples without an inhibitor (○). Results are mean ± s.d. from four independent experiments (n = 4). […] Data are calculated as the percent of residual activity with respect to the control sample (efflux time zero). The results are the means ± s.d. of three independent experiments.
The purified SiaT from P. mirabilis and S. aureus was reconstituted by using the detergent removal procedure with the batchwise method previously pointed out.[16],[21] In brief, 2.5 μg or 5 μg of P. mirabilis and S. aureus SiaT, respectively, were mixed with 120 μL 10% C12E8, 100 μL of 10% egg yolk phospholipids (w/v, in the form of sonicated liposomes as previously described),[43] […]
For uptake experiments, 600 μL of proteoliposomes were loaded onto a Sephadex G-75 column (0.7 cm diameter × 15 cm height), pre-equilibrated with 20 mM Hepes Tris pH 7.0 with 40 mM sucrose to balance the internal osmolarity. […] For kinetic measurement, the initial transport rate was measured by stopping the reaction after 5 min, that is, within the initial linear range of [^3H]-Neu5Ac uptake into the proteoliposomes previously described. […] In both uptake and efflux experiments, the transport assay was terminated by loading each proteoliposome sample (100 μL) on a Sephadex G-75 column (0.6 cm diameter × 8 cm height) to remove the external radioactivity. Proteoliposomes were eluted with 1 mL of 50 mM NaCl and collected in a 4 mL of scintillation mixture, vortexed and counted.

Chain of SiaT from S. aureus (A0A0H2XJ46 entry or part of it): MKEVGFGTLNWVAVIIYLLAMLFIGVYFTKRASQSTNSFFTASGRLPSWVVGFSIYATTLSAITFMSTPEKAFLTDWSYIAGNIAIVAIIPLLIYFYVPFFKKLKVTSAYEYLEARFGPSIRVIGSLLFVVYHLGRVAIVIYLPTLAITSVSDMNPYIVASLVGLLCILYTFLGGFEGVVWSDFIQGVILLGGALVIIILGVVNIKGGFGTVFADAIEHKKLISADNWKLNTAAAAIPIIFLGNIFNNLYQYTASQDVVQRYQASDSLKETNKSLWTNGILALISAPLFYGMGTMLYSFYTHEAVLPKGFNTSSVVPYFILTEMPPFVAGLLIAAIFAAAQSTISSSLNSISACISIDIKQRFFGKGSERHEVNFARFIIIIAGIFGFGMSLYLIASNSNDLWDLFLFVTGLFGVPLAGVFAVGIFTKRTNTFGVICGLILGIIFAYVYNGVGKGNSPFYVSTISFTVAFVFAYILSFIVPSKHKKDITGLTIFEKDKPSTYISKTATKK

SMILES	Ki	type of inhibition
CC(=O)NC1C(OCc2cc(F)cc(F)c2)CC(O)(C(=O)O)OC1C(O)C(O)CO (stereo not shown) [Compound 3e]	2.8 ± 0.5 µM	competitive inhibitors
CC(=O)NC1C(OCc2cc(Br)cc(Br)c2)CC(O)(C(=O)O)OC1C(O)C(O)CO (stereo not shown) [Compound 3f]	53.6 ± 11.1 µM	competitive inhibitors
